In experiment [1] the test system is LPS induced IL-23 (p19/p40) in DC cells differentiated from human PBMC. As to the kind of experiment: IL23-p19 ELISA, dendritic cells (DC differentiated from human PBMC), IFNγ primed, LPS stimulated. Particulars: human PBMC-derived dendritic cells, 1 μg/ml LPS, 18 hours, 10 pt. Type of experiment: cell-based. As for the experimental part:
Compound Screening Using DC Cells
1. Differentiation of PBMC's to DC Cells:
Human PBMC cells (400 million) obtained from the vendor were transferred into a T-175 flask containing 15 ml RPMI media (10% FBS) and incubate for 2 hours at 37° C. After 2 hours, the media including floating cells was aspirated out carefully and 12 ml of fresh RPMI media (10% FBS) containing GMCSF (100 ng/ml) and IL4 (20 ng/ml) was added, and the flask was kept in a 37° C. incubator for 7 days.
After 3 days, fresh GMCSF (100 ng/ml) and IL4 (20 ng/ml) were added to the flask and the incubation continued. After 7 days, the fully differentiated cells were harvested by spinning down (1200 rpm/5 min) and aspirating the media. The cells were suspended in fresh RPMI media (10% FBS) containing 50 ng/ml IFNγ (1000 U/ml) and then plated (50K/well in 100 μl) onto a white clear bottom 96 well plate and left in a 37° C. incubator for 24 hours.
2. Addition of Compounds:
After 24 hours incubation, 100 μl of RPMI media was added containing 2× concentrated test compound per well to the above cell-culture media (final concentration becomes 1×) and the plates were pre-incubated for 1 hour at 37° C. before stimulating with LPS.
After 1 hour compound pre-incubation, 10 μl per well of 20× concentrated LPS solution in RPMI media was added to give a final concentration of 1 μg/ml. The mixture was shaken and incubated the plates at 37° C. for an additional 18 hours.
155 μl of the supernatant was harvested from each well carefully (without the tip touching the bottom of the well) and to the remaining 50 μl/well of the cell culture plate was added 50 μl of Cell Titer Glo reagent. The mixture was incubated for 1-2 minutes on a shaker and the plate was read for luminescence intensity to determine the compound cytotoxicity. The cell culture supernatant collected above was used to carry out IL23 ELISA (65 μl-Supernatant) and IL10 ELISA (90 μl-Supernatant) as described below.
Human IL-23 (p19/p40) ELISA Protocol (e-Biosciences)
To 10.5 ml PBS add 50 μl of anti-IL23 (p19) was added capture antibody (2.5 μg/ml). The mixture was mixed well and 100 μl of the coating solution was added to each well of the 96 well white plates from Pierce. The wells were covered and incubated overnight at 4° C.
The anti-IL23 (p19)-antibody-coated plates were washed 2× using TBST (use plate washer) and blocked using 200 μl of 0.5% Casein for 1.5-2 hours at room temperature with shaking.
The plates were washed 2× using TBST and the supernatant was transferred (65 μl/well) to the above pre-blocked/IL23 (p19)-antibody-coated 96 well plate, and incubated at room temperature for 1.5 hours with shaking.
The plates were washed 4× using TBST (plate washer) and 100 μl/well detection antibody solution prepared from 2 μl of biotin labeled anti-IL-12 (p40/p70) antibody in 11 ml 1% BSA/PBS solution (1-5000 dilution) was added. The plates were incubated for 1 hour with shaking at room temperature.
Again, the plates were washed 4× with TBST and 100 μl of HRP labeled Streptavidin (R&D Systems) solution (10 μl/10 ml 1% BSA solution) was added, and the plates were incubated at room temperature for another 45 minutes with shaking.
After 45 minutes, the plates were washed with TBST 4× and 100 ul/well Super Signal ELISA Pico Chemiluminescent Substrate from Pierce (3.5 ml A+3.5 ml B+3.5 ml MQ water) was added. The plates were shaken for 1-2 minutes then read on a plate reader.
Background: In an ELISA, binding on a coated surface is turned into a signal by an enzyme label.

Experiment [2] deals with LPS induced IL23p19 in THP-1 cells. The experiment is described as follows: LPS Induced IL23p19 in THP-1 Cells (with IFNγ Primed) Assay. Type of experiment: cell-based. Particulars: Homo sapiens; THP-1 cells primed with IFNγ 50 ng/mL, 1 μg/mL LPS, 18 hours, 10 pt; read-out: IL23-p19 ELISA, THP1-IFNy, LPS, 10 pt EC50. The text has this:
LPS Induced IL23p19 in THP-1 Cells (with IFNγ Primed) Assay
THP-1 Cells (ATCC, Cat # TIB-202), Dimethyl Sulfoxide (DMSO) (Sigma-Aldrich, Cat # D2650), RPMI 1640 (Cellgro, Cat #10-040-CM), Fetal Bovine Serum (Sigma, Cat # F4135), Albumin From Bovine Serum (BSA) (Sigma-Aldrich, Cat # A7906), LPS (Serotype K-235, Sigma, Product Number L 2143), IFNγ (Peprotech, Cat #300-02), Capture antibody: Human IL-23p19 ELISA (e-Bioscience, Cat. #14-7238-85), Detection antibody: Primary Mouse Biotinylated anti-human IL-12 (p40/p70) (e-Bioscience, Cat. #13-7129-85), Secondary HRP-conjugated Streptavidin (R&D Systems, Cat # DY998), 1×PBST Washing Buffer (PBS-Tween tablet) (VWR International, Cat #80058-558), ELISA Blocking Buffer (PBS with 1% BSA), ELISA Dilution Buffer (PBS with 1% BSA), 384 Well Flat-Bottom, MaxiSorp Black Immuno Plates (Thermo Scientific, Cat #12-565-346), 384 Well Flat-Bottom, White Tissue Culture Plates (Thermo Scientific, Cat #12-565-343), Super Signal ELISA Pico Chemiluminescent Substrate (Thermo Scientific, Cat #37070), Cell Titer Glo reagent (Promega, Cat # G7573), Positive control, IKK2VI inhibitor (Calbiochem, Cat #401483), AquaMax 4000 plate washer (Molecular Devices), Luminometer, Wallac Victor2 1420 Multilabel Counter.
On day 1, 50K/well THP-1 cells were seeded and primed with IFNγ (50 ng/mL) in 384-well plates for about 18 hours in RPMI media with 10% FBS. On day 2, the compound was serially diluted in DMSO from 5 mM in 3-fold dilutions, and then diluted 1:125 in RPMI media with 10% FBS. 50 μL/well 2× compound was added to 50 μL/well THP-1 cells (with IFNγ primed) in duplicate in 384 well tissue culture plates. The cells were pre-incubated with compound for 1 hour at 37° C., 5% CO2 before addition of 10 μL/well 11×LPS to give a final concentration of 1 μg/mL LPS. Day 3, after stimulation for 18 hours at 37° C., 5% CO2, the assay plate was centrifuged and 70 μL/well supernatant was harvested. IL-23p19 protein in 70 μL/well of supernatant was measured by sandwich ELISA, and 25 μl/well Cell Titer Glo reagent was added to the remaining cells to measure compound toxicity.
Human IL-23p19 Sandwich ELISA:
Maxisorp immuno ELISA plates were pre-coated with 25 μL/well of anti-IL-23p19 capture antibody (2.5 ug/mL) in PBS overnight at room temperature. After washing with 1×PBST, the plates were blocked using 100 μL/well of 1% BSA in PBS for 2 hours at room temperature. The plates were washed three times with 1×PBST and 70 μL/well supernatant were added. The plates were incubated at room temperature for 2 hours with shaking and washed three times with 1×PBST. 25 μL/well of biotin labeled anti-IL-12 (p40/p70) detection antibody (100 ng/mL) in PBS with 1% BSA was added and the plates were incubated at room temperature for 2 hours with shaking. After washing three times with 1×PBST, 25 μL/well of streptavidin-HRP (1:200) in PBS with 1% BSA was added and the plates were incubated at room temperature for 20 minutes with shaking. The plates were washed three times with 1×PBST and 25 μL/well of Super Signal ELISA Pico Chemiluminescent Substrate were added. The plates were read with a luminometer, and the chemiluminescence values were entered into Athena (Rigel) for curve fitting, EC50 calculation, and database storage.

The structures appear in SMILES notation.

17 compounds from patent US10590121B2, “Kinase inhibitors and methods for making and using” (Rigel Pharmaceuticals, Inc., priority 2017, dated 2020) can be followed below.

For orientation: EC50 means the concentration at which the effect is half-maximal. Regarding `CN1CCN(c2ccc(NC(=O)c3cccc(-c4cn[nH]c4)n3)c(N3CCCCC3)c2)CC1` [I-1, N-(4-(4-methylpiperazin-1-yl)-2-(piperidin-1-yl)phenyl)-6-(1H-pyrazol-4-yl)picolinamide], the half-maximal effective concentration (EC50) is 843 nM in experiment [1] and 308 nM in experiment [2].
In the same order, the values of `CN1CCN(c2ccc(NC(=O)c3ccc(-c4cn[nH]c4)o3)c(N3CCCCC3)c2)CC1` [I-2, N-(4-(4-methylpiperazin-1-yl)-2-(piperidin-1-yl)phenyl)-5-(1H-pyrazol-4-yl)furan-2-carboxamide] are 120 nM and 36.8 nM.
The like results for `CN1CCN(c2ccc(NC(=O)c3csc(-c4cn[nH]c4)n3)c(N3CCCCC3)c2)CC1` [I-3, N-(4-(4-methylpiperazin-1-yl)-2-(piperidin-1-yl)phenyl)-2-(1H-pyrazol-4-yl)thiazole-4-carboxamide] were, in that order, 71.2 nM and 25.9 nM.
As to `O=C(Nc1ccc(N2CCOCC2)cc1N1CCC(F)CC1)c1cccc(-c2cn[nH]c2)n1` [I-4, N-(2-(4-fluoropiperidin-1-yl)-4-morpholinophenyl)-6-(1H-pyrazol-4-yl)picolinamide], the values for the concentration giving a half-maximal response (EC50) in experiment [1] and in experiment [2] were 3600 nM and 314 nM, respectively.
In the same order, the values of `O=C(Nc1ccc(N2CCOCC2)cc1N1CCC(F)CC1)c1ccc(-c2cn[nH]c2)o1` [I-5, N-(2-(4-fluoropiperidin-1-yl)-4-morpholinophenyl)-5-(1H-pyrazol-4-yl)furan-2-carboxamide] are 182 nM and 145 nM.
The like results for `O=C(Nc1ccc(N2CCOCC2)cc1N1CCC(F)CC1)c1csc(-c2cn[nH]c2)n1` [I-6, N-(2-(4-fluoropiperidin-1-yl)-4-morpholinophenyl)-2-(1H-pyrazol-4-yl)thiazole-4-carboxamide] were, in that order, 114 nM and 76.4 nM.
For the compound `CN1CCN(c2ccc(NC(=O)c3cccc(-c4cn[nH]c4)n3)c(N3CCC(F)CC3)c2)CC1` [I-7, N-(2-(4-fluoropiperidin-1-yl)-4-(4-methylpiperazin-1-yl)phenyl)-6-(1H-pyrazol-4-yl)picolinamide], the figures for the concentration for a half-maximal effect (EC50) in experiment [1] and in experiment [2] were 689 nM and 880 nM, respectively.
The like results for `CN1CCN(c2ccc(NC(=O)c3ccc(-c4cn[nH]c4)o3)c(N3CCC(F)CC3)c2)CC1` [I-8, N-(2-(4-fluoropiperidin-1-yl)-4-(4-methylpiperazin-1-yl)phenyl)-5-(1H-pyrazol-4-yl)furan-2-carboxamide] were, in that order, 182 nM and 63.7 nM.
In the same order, the values of `CN1CCN(c2ccc(NC(=O)c3csc(-c4cn[nH]c4)n3)c(N3CCC(F)CC3)c2)CC1` [I-9, N-(2-(4-fluoropiperidin-1-yl)-4-(4-methylpiperazin-1-yl)phenyl)-2-(1H-pyrazol-4-yl)thiazole-4-carboxamide] are 67.2 nM and 36 nM.
In the same order, the values of `O=C(Nc1ccc(N2CCOCC2)cc1N1CCC(O)CC1)c1cccc(-c2cn[nH]c2)n1` [I-10, N-(2-(4-hydroxypiperidin-1-yl)-4-morpholinophenyl)-6-(1H-pyrazol-4-yl)picolinamide] are 1740 nM and 303 nM.
Take `O=C(Nc1ccc(N2CCOCC2)cc1N1CCC(O)CC1)c1ccc(-c2cn[nH]c2)o1` [I-11, N-(2-(4-hydroxypiperidin-1-yl)-4-morpholinophenyl)-5-(1H-pyrazol-4-yl)furan-2-carboxamide]: the EC50 in experiment [1] came out at 162 nM; in experiment [2] it was 134 nM.
The like results for `O=C(Nc1ccc(N2CCOCC2)cc1N1CCC(O)CC1)c1csc(-c2cn[nH]c2)n1` [I-12, N-(2-(4-hydroxypiperidin-1-yl)-4-morpholinophenyl)-2-(1H-pyrazol-4-yl)thiazole-4-carboxamide] were, in that order, 60 nM and 84.1 nM.
The like results for `O=C(Nc1ccc(N2CCOCC2)cc1N1CCOCC1)c1cccc(-c2cn[nH]c2)n1` [I-13, N-(2,4-dimorpholinophenyl)-6-(1H-pyrazol-4-yl)picolinamide] were, in that order, 14400 nM and 1730 nM.
For `O=C(Nc1ccc(N2CCOCC2)cc1N1CCC(F)(F)CC1)c1cccc(-c2cn[nH]c2)n1` [I-19, N-(2-(4,4-difluoropiperidin-1-yl)-4-morpholinophenyl)-6-(1H-pyrazol-4-yl)picolinamide], in experiment [2], the concentration giving a half-maximal response (EC50) amounted to 2520 nM.
As to `COc1ccc(N2CCOCC2)cc1NC(=O)c1ccc(-c2cn[nH]c2)o1` [I-40, N-(2-methoxy-5-morpholinophenyl)-5-(1H-pyrazol-4-yl)furan-2-carboxamide], the half-maximal effective concentration (EC50) in experiment [2] amounted to 3380 nM.
Same read-out and setting: then `O=C(Nc1ccc(CCN2CCOCC2)cc1N1CCCCC1)c1ccc(-c2cn[nH]c2)o1` [I-55, N-(4-(2-morpholinoethyl)-2-(piperidin-1-yl)phenyl)-5-(1H-pyrazol-4-yl)furan-2-carboxamide], with 9780 nM; and `O=C(Nc1cc(N2CCOCC2)ccc1N1CCCCC1)c1cccc(-c2cn[nH]c2)n1` [I-75, N-(5-morpholino-2-(piperidin-1-yl)phenyl)-6-(1H-pyrazol-4-yl)picolinamide], with 52800 nM.
